Experimental data: patent US20250340574A1, “MODULATORS OF CYSTIC FIBROSIS TRANSMEMBRANE CONDUCTANCE REGULATOR” (Vertex Pharmaceuticals Incorporated, priority 2022, published 2025)
Where two headings read alike, the source gives them in different places.

Target: T1, CFTR (F508del/MF-HBE cells) (Homo sapiens, UniProt P13569, DEL508-508)
T1 construct: human bronchial epithelial (HBE) cells derived from CF subjects heterozygous for F508del and a minimal function CFTR mutation (F508del/MF-HBE); endogenous in cells; host or cells: Primary human bronchial epithelial cells from CF subjects (F508del/MF genotype), differentiated at an air-liquid interface
Assay: Ussing chamber assay of CFTR-mediated short-circuit currents, Assay C (0.026 μM to 25 μM, 6 concentrations)
Format: cell-based
Details: with 33 nM potentiator and 18 μM Tezacaftor, 20% human serum; for Emax: read-out: C Max activity (%)
Method: Ussing chamber experiments were performed using human bronchial epithelial (HBE) cells derived from CF subjects heterozygous for F508del and a minimal function CFTR mutation (F508del/MF-HBE) and cultured as previously described (Neuberger T, Burton B, Clark H, Van Goor F Methods Mol Biol 2011:741:39-54). After four days the apical media was removed, and the cells were grown at an air liquid interface for >14 days prior to use.
To isolate the CFTR-mediated short-circuit (ISC) current, F508del/MF-HBE grown on Costar® Snapwell™ cell culture inserts were mounted in an Ussing chamber and the transepithelial ISC was measured under voltage-clamp recording conditions (Vhold=0 mV) at 37° C. The basolateral solution contained (in mM) 145 NaCl, 0.83 K2HPO4, 3.3 KH2PO4, 1.2 MgCl2, 1.2 CaCl2, 10 Glucose, 10 HEPES (pH adjusted to 7.4 with NaOH) and the apical solution contained (in mM) 145 NaGluconate, 1.2 MgCl2, 1.2 CaCl2, 10 glucose, 10 HEPES (pH adjusted to 7.4 with NaOH) and 30 μM amiloride to block the epithelial sodium channel. Forskolin (20 μM) was added to the apical surface to activate CFTR, followed by apical addition of a CFTR inhibitor cocktail consisting of BPO, GlyH-101, and CFTR inhibitor 172 (each at 20 μM final assay concentration) to specifically isolate CFTR currents. The CFTR-mediated ISC (μA/cm^2) for each condition was determined from the peak forskolin response to the steady-state current following inhibition.
The activity of the CFTR corrector compounds on the CFTR-mediated ISC was determined in Ussing chamber studies as described above. The F508del/MF-HBE cell cultures were either incubated with the corrector compounds at a range of concentrations in combination with 33 nM (6R,12R)-17-amino-12-methyl-6,15-bis(trifluoromethyl)-13,19-dioxa-3,4,18-triazatricyclo[12.3.1.12,5]nonadeca-1(18),2,4,14,16-pentaen-6-ol and 18 μM Tezacaftor or were incubated with the corrector compounds at a single fixed concentration of 1 μM in combination with 44 nM (6R,12R)-17-amino-12-methyl-6,15-bis(trifluoromethyl)-13,19-dioxa-3,4,18-triazatricyclo[12.3.1.12,5]nonadeca-1(18),2,4,14,16-pentaen-6-ol and 18 μM Tezacaftor for 18-24 hours at 37° C. and in the presence of 20% human serum. The concentration of corrector compounds with 44 nM or 33 nM (6R,12R)-17-amino-12-methyl-6,15-bis(trifluoromethyl)-13,19-dioxa-3,4,18-triazatricyclo[12.3.1.12,5]nonadeca-1(18),2,4,14,16-pentaen-6-ol and 18 μM Tezacaftor during the 18-24 hours incubations was kept constant throughout the Ussing chamber measurement of the CFTR-mediated ISC to ensure compounds were present throughout the entire experiment. The efficacy and potency of the putative F508del correctors was compared to that of the known Vertex corrector, (14S)-8-[3-(2-{Dispiro[2.0.2.1]heptan-7-yl}ethoxy)-1H-pyrazol-1-yl]-12,12-dimethyl-2λ^6-thia-3,9,11,18,23-pentaazatetracyclo[17.3.1.111,14.05,10]tetracosa-1(22),5,7,9,19(23),20-hexaene-2,2,4-trione, in combination with 18 μM Tezacaftor and 1 μM Ivacaftor.
• Assay A: 0.1 μM to 25 μM, 6 concentrations • Assay B: 0.00001 μM to 25 μM, 12 concentrations • Assay C: 0.026 μM to 25 μM, 6 concentrations • Assay D: Activity at single concentration of 1 μM

T1 sequence (P13569 with tags, fused parts or gaps DEL508-508): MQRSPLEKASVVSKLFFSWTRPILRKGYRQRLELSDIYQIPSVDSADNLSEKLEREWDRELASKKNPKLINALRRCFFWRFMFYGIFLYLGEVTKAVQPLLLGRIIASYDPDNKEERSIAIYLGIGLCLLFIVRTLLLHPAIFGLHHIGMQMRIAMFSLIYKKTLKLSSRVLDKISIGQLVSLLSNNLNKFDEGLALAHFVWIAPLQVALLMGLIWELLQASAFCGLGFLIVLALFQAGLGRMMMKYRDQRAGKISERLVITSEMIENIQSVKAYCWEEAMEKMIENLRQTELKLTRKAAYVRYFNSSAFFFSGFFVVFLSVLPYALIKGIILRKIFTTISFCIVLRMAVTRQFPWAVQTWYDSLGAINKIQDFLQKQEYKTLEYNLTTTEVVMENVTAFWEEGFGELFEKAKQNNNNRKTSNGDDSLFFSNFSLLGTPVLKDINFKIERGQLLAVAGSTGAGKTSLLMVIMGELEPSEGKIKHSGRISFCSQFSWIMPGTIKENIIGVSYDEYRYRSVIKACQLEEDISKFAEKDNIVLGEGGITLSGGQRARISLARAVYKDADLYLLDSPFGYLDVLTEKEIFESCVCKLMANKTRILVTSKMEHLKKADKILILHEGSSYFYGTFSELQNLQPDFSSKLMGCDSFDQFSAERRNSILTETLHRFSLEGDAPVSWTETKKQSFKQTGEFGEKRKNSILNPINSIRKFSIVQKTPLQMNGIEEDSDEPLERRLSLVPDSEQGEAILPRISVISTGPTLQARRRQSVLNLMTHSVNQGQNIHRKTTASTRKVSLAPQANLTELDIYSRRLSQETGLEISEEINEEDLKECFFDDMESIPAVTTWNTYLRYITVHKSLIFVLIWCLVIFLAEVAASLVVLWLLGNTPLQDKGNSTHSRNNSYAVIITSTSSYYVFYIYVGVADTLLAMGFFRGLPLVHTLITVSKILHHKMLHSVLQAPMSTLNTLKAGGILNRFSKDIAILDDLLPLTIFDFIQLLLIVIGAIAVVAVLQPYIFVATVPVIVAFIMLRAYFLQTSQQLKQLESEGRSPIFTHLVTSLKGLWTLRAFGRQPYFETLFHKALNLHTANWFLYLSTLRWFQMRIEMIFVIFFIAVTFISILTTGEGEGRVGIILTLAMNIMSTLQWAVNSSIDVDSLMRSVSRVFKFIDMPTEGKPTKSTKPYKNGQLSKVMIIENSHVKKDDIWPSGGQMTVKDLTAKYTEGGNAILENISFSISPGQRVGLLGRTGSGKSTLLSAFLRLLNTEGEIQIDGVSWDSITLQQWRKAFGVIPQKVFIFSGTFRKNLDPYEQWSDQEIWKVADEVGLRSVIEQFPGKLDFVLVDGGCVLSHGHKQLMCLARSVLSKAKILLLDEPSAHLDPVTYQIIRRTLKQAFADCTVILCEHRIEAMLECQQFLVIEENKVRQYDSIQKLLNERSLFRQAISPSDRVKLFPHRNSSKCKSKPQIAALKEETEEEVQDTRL

| EC50 | Emax | Emax (18-24 hours) | Structure (SMILES) |
| --- | --- | --- | --- |
| < 1000 nM | > 60% |  | Cc1cccc(CC(C)C)c1-c1nc2nc(c1C)OC[C@@H](C(C)C)N(Cc1cnc3cc(C(C)(C)C)n(C)c3n1)C(=O)c1cccc(c1)S(=O)(=O)N2 (atropisomer, axis not shown) [IV-79] |
| 1000 to 3000 nM | > 60% |  | Cc1cccc(CC(C)C)c1-c1nc2nc(c1C)OC[C@@H](COC(C)C)N(Cc1cnc3oc(C(C)(C)C)cc3n1)C(=O)c1cccc(c1)S(=O)(=O)N2 (atropisomer, axis not shown) [IV-43] |
| 1000 to 3000 nM |  | > 60% | Cc1cccc(C)c1-c1cc2nc(n1)NS(=O)(=O)c1cccc(c1)C(=O)N(Cc1nc3cc(C4CC4)oc3cc1F)[C@H](CC13CC(C1)C3)CO2 [Compound I-208] |
| < 1000 nM |  | > 60% | Cc1cccc(CCC(C)C)c1-c1nc2nc(c1C)OC[C@@H](CC(C)(C)C)N(Cc1cnc3cc(C(C)C)n(C)c3n1)C(=O)c1cccc(c1)S(=O)(=O)N2 (single isomer, unassigned) [Compound I-202] |
| 1000 to 3000 nM | > 60% |  | Cc1cccc(C)c1-c1cc2nc(n1)NS(=O)(=O)c1cccc(c1)C(=O)N(Cc1cnc3oc(C(C)(C)C)cc3n1)[C@H](C[C@@H]1CCCCO1)CO2 [IV-85] |
| 1000 to 3000 nM | > 60% |  | Cc1cccc(C)c1-c1cc2nc(n1)NS(=O)(=O)c1cccc(c1)C(=O)N(Cc1cnc3cc(C(C)(C)C(F)(F)F)n(C)c3n1)[C@H](COC(C)C)CO2 [IV-99] |
| < 1000 nM |  |  | Cc1cccc(C)c1-c1cc2nc(n1)NS(=O)(=O)c1cccc(c1)C(=O)N(Cc1cnc3cc(C(C)(C)C)n(C)c3n1)[C@H](C1CCCO1)CO2 (single isomer, unassigned) [IV-97] |
| 1000 to 3000 nM | > 60% |  | Cc1cccc(CC(C)C)c1-c1nc2nc(c1C)OC[C@@H](CC1(C)CC1)N(Cc1cnc3cc(C4(C(F)(F)F)CC4)n(C)c3n1)C(=O)c1cccc(c1)S(=O)(=O)N2 (atropisomer, axis not shown) [IV-77] |
| 1000 to 3000 nM | > 60% |  | Cc1cccc(CC(C)C)c1-c1nc2nc(c1C)OC[C@@H](COC(F)(F)F)N(Cc1cnc3cc(C4CC4)n(C)c3n1)C(=O)c1cccc(c1)S(=O)(=O)N2 [IV-69] |
| 1000 to 3000 nM | > 60% |  | CCc1cccc(CC)c1-c1cc2nc(n1)NS(=O)(=O)c1cccc(c1)C(=O)N(Cc1cnc3oc(C4CC4)cc3n1)[C@H](CC(C)(C)C)CO2 [IV-68] |

The next lines start with the molecule.

| Structure (SMILES) | EC50 | Emax | Emax (18-24 hours) |
| --- | --- | --- | --- |
| COCc1c(C(C)(C)C)n(C)c2nc(CN3C(=O)c4cccc(c4)S(=O)(=O)Nc4nc(cc(-c5c(C)cccc5C)n4)OC[C@H]3CC34CC(C3)C4)cnc12 [IV-89, (11R)-11-(1-bicyclo[1.1.1]pentanylmethyl)-12-[[6-tert-butyl-7-(methoxymethyl)-5-methyl-pyrrolo[2,3-b]pyrazin-3-yl]methyl]-6-(2,6-dimethylphenyl)-2,2-dioxo-9-oxa-2λ^6-thia-3,5,12,19-tetrazatricyclo[12.3.1.14,8]nonadeca-1(18),4(19),5,7,14,16-hexaen-13-one] | < 1000 nM | > 60% |  |
| Cc1cccc(C)c1-c1cc2nc(n1)NS(=O)(=O)c1cccc(c1)C(=O)N(Cc1cnc3oc(C4CC4)cc3n1)[C@H]([C@H](C)OC(C)(C)C)CO2 (stereo in doubt) [IV-80] | 1000 to 3000 nM | > 60% |  |
| Cc1cccc(C)c1-c1cc2nc(n1)NS(=O)(=O)c1cccc(c1)C(=O)N(Cc1cnc3cc(C(C)(C)C)n(C)c3n1)[C@@H](CC1CC(F)(F)C1)CO2 (single isomer, unassigned) [IV-55, 12-[(6-tert-Butyl-5-methyl-pyrrolo[2,3-b]pyrazin-3-yl)methyl]-11-[(3,3-difluorocyclobutyl)methyl]-6-(2,6-dimethylphenyl)-2,2-dioxo-9-oxa-2λ^6-thia-3,5,12,19-tetrazatricyclo[12.3.1.14,8]nonadeca-1(18),4(19),5,7,14,16-hexaen-13-one] | < 1000 nM | > 60% |  |
| Cc1cccc(C)c1-c1cc2nc(n1)NS(=O)(=O)c1cccc(c1)C(=O)N(Cc1cnc3oc(C4CCC4)cc3n1)[C@H](CC1(C)CC1)CO2 [Compound I-133] | 3000 to 30000 nM |  | > 60% |
| Cc1cccc(C)c1-c1nc2nc(c1C)OC[C@@H](C[C@H]1CCCO1)N(Cc1cnc3cc(C4(C(F)(F)F)CC4)n(C)c3n1)C(=O)c1cccc(c1)S(=O)(=O)N2 [IV-106] | < 1000 nM | > 60% |  |
| Cc1cccc(OC(C)C)c1-c1nc2nc(c1C)OC[C@@H](CC(C)(C)C)N(Cc1cnc3cc(C(C)(C)C)n(C)c3n1)C(=O)c1cccc(c1)S(=O)(=O)N2 (atropisomer, axis not shown) [Compound I-260] | < 1000 nM |  | > 60% |
| Cc1cccc(C)c1-c1cc2nc(n1)NS(=O)(=O)c1cccc(c1)C(=O)N(Cc1cnc3cc(C4(C(F)(F)F)CC4)n(C)c3n1)[C@H](COC(C)C)CO2 [IV-74] | 1000 to 3000 nM | > 60% |  |
| CCc1cccc(CC)c1-c1nc2nc(c1C)OC[C@@H](CC(C)(C)C)N(Cc1cnc3cc(C(C)(C)C)n(C)c3n1)C(=O)c1cccc(c1)S(=O)(=O)N2 [IV-91] | < 1000 nM | > 60% |  |
| Cc1cccc(C)c1-c1cc2nc(n1)NS(=O)(=O)c1cccc(c1)C(=O)N(Cc1cnc3cc(C4(C(F)(F)F)CC4)n(C)c3n1)[C@H](CC13CC(C1)C3)CO2 [IV-73] | < 1000 nM | > 60% |  |
| Cc1cccc(C)c1-c1cc2nc(n1)NS(=O)(=O)c1cccc(c1)C(=O)N(Cc1cnc3oc(C4(C)CC4)cc3n1)[C@H](C[C@@H]1CCCO1)CO2 [IV-84] | 1000 to 3000 nM | > 60% |  |
| Cc1cccc(C(C)C)c1-c1nc2nc(c1C)OC[C@@H](CC(C)(C)C)N(Cc1cnc3cc(C(C)C)n(C)c3n1)C(=O)c1cccc(c1)S(=O)(=O)N2 (atropisomer, axis not shown) [Compound I-179] | 3000 to 30000 nM |  | > 60% |
| Cc1cccc(CC(C)C)c1-c1nc2nc(c1C)OC[C@@H](CC1(C)CC1)N(Cc1cnc3cc(C(C)(C)C)n(C)c3n1)C(=O)c1cccc(n1)S(=O)(=O)N2 [IV-72] | 1000 to 3000 nM | > 60% |  |
| Cc1cccc(CC(C)C)c1-c1nc2nc(c1C)OC[C@@H](COC(F)(F)F)N(Cc1cnc3cc(C(C)(C)C)n(C)c3n1)C(=O)c1cccc(c1)S(=O)(=O)N2 (atropisomer, axis not shown; (P)) [IV-70, (6P,11S)-12-({6-tert-butyl-5-methyl-5H-pyrrolo[2,3-b]pyrazin-3-yl}methyl)-7-methyl-6-[2-methyl-6-(2-methylpropyl)phenyl]-11-[(trifluoromethoxy)methyl]-9-oxa-2λ^6-thia-3,5,12,19-tetraazatricyclo[12.3.1.1∧{4,8}]nonadeca-1(17),4,6,8(19),14(18),15-hexaene-2,2,13-trione] | 1000 to 3000 nM | > 60% |  |
| Cc1cccc(OC(C)C)c1-c1nc2nc(c1C)OC[C@@H](CC(C)(C)C)N(Cc1cnc3oc(C(C)(C)C)cc3n1)C(=O)c1cccc(c1)S(=O)(=O)N2 (atropisomer, axis not shown) [Compound I-249] | 1000 to 3000 nM |  | > 60% |
| Cc1cccc(C)c1-c1cc2nc(n1)NS(=O)(=O)c1cccc(c1)C(=O)N(Cc1cnc3oc(C(C)(C)C)cc3n1)[C@H](CC13CC(C)(C1)C3)CO2 [IV-53, (11R)-12-[(6-tert-butylfuro[2,3-b]pyrazin-2-yl)methyl]-6-(2,6-dimethylphenyl)-11-[(3-methyl-1-bicyclo[1.1.1]pentanyl)methyl]-2,2-dioxo-9-oxa-2λ^6-thia-3,5,12,19-tetrazatricyclo[12.3.1.14,8]nonadeca-1(18),4(19),5,7,14,16-hexaen-13-one] | 1000 to 3000 nM | > 60% |  |
